In patent publication US20160297830A1, “NOVEL COMPOUNDS USEFUL FOR THE TREATMENT OF BACTERIAL INFECTIOUS DISEASES” (GALAPAGOS NV, priority 2013, published 2016):
Converted amounts (≈) assume the structure as drawn. Where two headings read alike, the source gives them in different places.

Key:
[1] = tested on: E. coli Ec113 efflux pump KO; assay: microbe, parasite or virus in culture; assay type: cell-based; conditions: Escherichia coli, read-out: MIC Ec113 efflux pump KO
[2] = tested on: S. aureus Sa4 NCTC 6571; assay: Antibacterial activity assay (MIC), S. aureus Sa4; assay type: cell-based; conditions: Staphylococcus aureus, NCTC6571, read-out: MIC Sa4
[3] = tested on: S. aureus Sa2 clinical strain NCIMB 41953, MRSA; assay: microbe, parasite or virus in culture; assay type: cell-based; conditions: Staphylococcus aureus, read-out: MIC Sa2
[4] = tested on: E. coli Ec50 efflux pump KO; assay: microbe, parasite or virus in culture; assay type: cell-based; conditions: Escherichia coli, read-out: MIC Ec50 efflux pump KO
[5] = tested on: Methicillin Resistant S. aureus (MRSA); assay: Neutropenic mouse thigh infection model; conditions: Thigh Sa
[6] = tested on: H. influenza Hi3 ATCC 31517; assay: organism not typed; assay type: cell-based; conditions: read-out: MIC Hi3
[7] = target: DNA Polymerase IIIα (DnaE) from Staphylococcus aureus (Staphylococcus aureus, UniProt Q6GG04); assay: biochemical
[8] = tested on: S. aureus Sa1 ATCC 13709; assay: microbe, parasite or virus in culture; assay type: cell-based; conditions: Staphylococcus aureus, ATCC13709, read-out: MIC Sa1
[9] = tested on: Methicillin Resistant S. aureus Sa2 (MRSA); assay: animal or person; assay type: in vivo; conditions: lung
[10] = tested on: H. influenza Hi106 ATCC 51907; assay: organism not typed; assay type: cell-based; conditions: read-out: MIC Hi106
[11] = tested on: E. coli Ec1 ATCC 25922; assay: Antibacterial activity assay (MIC), E. coli Ec1; assay type: cell-based; conditions: Escherichia coli, ATCC25922, read-out: MIC Ec1
[12] = tested on: H. influenza Hi47 clinical strain, Ampicillin Resistant; assay: organism not typed; assay type: cell-based; conditions: read-out: MIC Hi47
[13] = tested on: H. influenza Hi10 clinical strain; assay: organism not typed; assay type: cell-based; conditions: read-out: MIC Hi10
[14] = tested on: S. aureus Sa26 ATCC 25923; assay: Antibacterial activity assay (MIC), S. aureus Sa26; assay type: cell-based; conditions: Staphylococcus aureus
[15] = target: DNA III Polymerase E (Escherichia coli, UniProt P10443); assay: In vitro activity against DNA III Polymerase E, E. coli; assay type: biochemical; conditions: DNA polymerase III, E. coli; read-out: IC50 semiquantitative scoring, E. coli
Outline: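 Recombinant enzyme (0.47 μg/mL diluted stock) in 20 mM Tris pH7.5, 8 mM DTT, 10 mM MgOAc, 0.05% CHAPS met compound series from 100 μM top, 1/5 steps. Activated calf thymus DNA, dNTPs and [α-33P]-dTTP substrate were added, and incubation ran 120 min at 30° C. IC50 came from filter-captured incorporated radioactivity versus controls.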

[16] = tested on: Methicillin Resistant S. aureus Sa2 (MRSA); assay type: in vivo; conditions: Groin Sa, Study 2; 50 mg/kg PO BID; sample time 31 h post infection
[17] = Study 2, 50 mg/kg IP BID, sample time 7 h PI
[18] = Study 4, 5 mg/kg IP BID, sample time 24 h PI
[19] = Study 4, 15 mg/kg IP BID, sample time 24 h PI
[20] = Study 4, 50 mg/kg IP BID, sample time 24 h PI
[21] = Study 5, 5 mg/kg IV BID, sample time 24 h PI
[22] = Study 6, 25 mg/kg IV BID, sample time 24 h PI
[23] = Study 7, 15 mg/kg PO BID, sample time 24 h PI
[24] = Study 7, 50 mg/kg PO BID, sample time 24 h PI
[25] = Study 8, 50 mg/kg PO QD, sample time 48 h PI

DNA III Polymerase E, sequence (P10443 whole entry): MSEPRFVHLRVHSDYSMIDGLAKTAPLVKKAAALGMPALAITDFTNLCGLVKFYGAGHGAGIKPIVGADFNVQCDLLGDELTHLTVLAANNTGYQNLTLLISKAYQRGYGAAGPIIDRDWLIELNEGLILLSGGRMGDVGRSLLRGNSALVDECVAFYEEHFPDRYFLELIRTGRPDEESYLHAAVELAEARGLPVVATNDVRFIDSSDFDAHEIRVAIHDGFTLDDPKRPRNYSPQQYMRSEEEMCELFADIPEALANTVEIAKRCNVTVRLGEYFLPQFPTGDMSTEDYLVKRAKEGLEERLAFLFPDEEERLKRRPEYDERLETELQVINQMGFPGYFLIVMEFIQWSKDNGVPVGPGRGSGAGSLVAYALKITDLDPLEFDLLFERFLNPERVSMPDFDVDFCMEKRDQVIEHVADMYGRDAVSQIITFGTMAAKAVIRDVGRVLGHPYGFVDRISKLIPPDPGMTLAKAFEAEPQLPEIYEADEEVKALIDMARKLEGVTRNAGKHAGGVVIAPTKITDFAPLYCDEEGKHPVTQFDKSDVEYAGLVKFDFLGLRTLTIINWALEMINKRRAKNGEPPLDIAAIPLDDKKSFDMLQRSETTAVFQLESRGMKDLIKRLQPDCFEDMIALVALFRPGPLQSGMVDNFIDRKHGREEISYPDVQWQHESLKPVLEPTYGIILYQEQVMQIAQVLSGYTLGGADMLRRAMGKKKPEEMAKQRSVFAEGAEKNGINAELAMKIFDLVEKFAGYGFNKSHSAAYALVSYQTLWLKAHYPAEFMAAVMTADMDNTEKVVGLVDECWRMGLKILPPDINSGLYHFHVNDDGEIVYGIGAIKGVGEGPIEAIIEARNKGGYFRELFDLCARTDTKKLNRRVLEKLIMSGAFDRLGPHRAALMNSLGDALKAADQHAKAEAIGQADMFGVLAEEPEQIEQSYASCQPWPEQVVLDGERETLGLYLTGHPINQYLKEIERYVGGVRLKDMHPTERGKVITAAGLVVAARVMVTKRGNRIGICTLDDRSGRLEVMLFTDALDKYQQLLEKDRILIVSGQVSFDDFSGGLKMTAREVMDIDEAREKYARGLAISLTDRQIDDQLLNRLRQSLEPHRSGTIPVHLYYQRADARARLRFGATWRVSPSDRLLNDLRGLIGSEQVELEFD
DNA Polymerase IIIα (DnaE) from Staphylococcus aureus, sequence (Q6GG04 1-1022): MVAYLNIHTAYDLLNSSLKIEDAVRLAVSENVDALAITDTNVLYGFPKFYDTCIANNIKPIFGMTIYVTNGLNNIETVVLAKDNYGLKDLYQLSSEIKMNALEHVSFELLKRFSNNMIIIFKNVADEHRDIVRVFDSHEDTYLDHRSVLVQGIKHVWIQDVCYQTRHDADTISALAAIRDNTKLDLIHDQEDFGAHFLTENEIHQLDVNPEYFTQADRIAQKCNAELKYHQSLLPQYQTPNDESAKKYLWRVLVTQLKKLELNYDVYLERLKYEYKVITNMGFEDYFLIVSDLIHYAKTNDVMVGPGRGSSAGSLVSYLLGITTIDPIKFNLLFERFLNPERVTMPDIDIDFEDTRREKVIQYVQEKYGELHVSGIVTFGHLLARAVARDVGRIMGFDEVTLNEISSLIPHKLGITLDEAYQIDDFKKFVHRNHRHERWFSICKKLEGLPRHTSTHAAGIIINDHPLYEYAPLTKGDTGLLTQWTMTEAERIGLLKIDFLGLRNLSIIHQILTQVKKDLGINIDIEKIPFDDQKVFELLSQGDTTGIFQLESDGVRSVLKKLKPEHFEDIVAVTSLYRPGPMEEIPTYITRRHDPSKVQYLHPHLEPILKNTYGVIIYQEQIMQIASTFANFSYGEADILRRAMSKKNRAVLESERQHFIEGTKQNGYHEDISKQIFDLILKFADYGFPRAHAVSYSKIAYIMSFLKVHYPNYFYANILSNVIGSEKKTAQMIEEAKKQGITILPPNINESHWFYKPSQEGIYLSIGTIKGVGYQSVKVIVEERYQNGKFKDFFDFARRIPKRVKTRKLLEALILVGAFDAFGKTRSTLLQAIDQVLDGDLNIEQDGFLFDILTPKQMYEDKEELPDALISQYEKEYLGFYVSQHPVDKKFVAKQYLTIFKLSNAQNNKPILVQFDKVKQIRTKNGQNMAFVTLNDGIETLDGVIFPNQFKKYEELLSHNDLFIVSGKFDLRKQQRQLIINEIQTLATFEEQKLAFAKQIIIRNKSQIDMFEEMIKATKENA

Compound: COC[C@@H]1[C@@H](O)[C@@H]2[C@H]3C=C[C@@H]4[C@@H](COC)C(=O)O[C@H]([C@H](O)COC)[C@H](C)/C=C(\C)[C@@]24O[C@H]3[C@@H]1OC(=O)c1ccc[nH]1 [Compound 2, 8-O-1H-pyrrole-2′-carbonylbranimycin]
- MIC [1]: 1 mg/L (≈ 1.74 µM)
- MIC [2]: 1 mg/L (≈ 1.74 µM)
- MIC [3]: 0.5 mg/L (≈ 0.869 µM)
- MIC [4]: 16 mg/L (≈ 27.8 µM)
- Active [5, 17]: Y
- Log reduction vs. untreated [5, 17]: −3.55
- Active [5, 18]: N
- Log reduction vs. untreated [5, 18]: −1.16
- Active [5, 19]: Y
- Log reduction vs. untreated [5, 19]: −3.32
- Active [5, 20]: Y
- Log reduction vs. untreated [5, 20]: −4.74
- Active [5, 21]: N
- Log reduction vs. untreated [5, 21]: −0.13
- Active [5, 22]: Y
- Log reduction vs. untreated [5, 22]: −3.92
- Active [5, 23]: Y
- Log reduction vs. untreated [5, 23]: −4.13
- Active [5, 24]: Y
- Log reduction vs. untreated [5, 24]: −6.72
- Active [5, 25]: Y
- Log reduction vs. untreated [5, 25]: −4.63
- MIC [6]: > 64 mg/L
- IC50 [7]: 0.00174 to 1.74 µM
- MIC [8]: 1 mg/L (≈ 1.74 µM)
- log reduction at 50 mg/kg ([9]; Staphylococcus aureus, MRSA, in Mus musculus, po, 24 h, read-out: Log reduction vs. untreated, Study 1, 50 mg/kg PO BID, sample 24 h post infection): 3.36
- log reduction at 15 mg/kg ([9]; Staphylococcus aureus, MRSA, in Mus musculus, po, 24 h, read-out: Log reduction vs. untreated, Study 2, 15 mg/kg PO BID, sample 24 h post infection): 3.91
- log reduction at 50 mg/kg ([9]; Staphylococcus aureus, MRSA, in Mus musculus, po, 24 h, read-out: Log reduction vs. untreated, Study 2, 50 mg/kg PO BID, sample 24 h post infection): 2.99
- log reduction at 6.25 mg/kg ([9]; Staphylococcus aureus, MRSA, in Mus musculus, po, 24 h, read-out: Log reduction vs. untreated, Study 4, 6.25 mg/kg PO BID, sample 24 h post infection): 0.04
- log reduction at 12.5 mg/kg ([9]; Staphylococcus aureus, MRSA, in Mus musculus, po, 24 h, read-out: Log reduction vs. untreated, Study 4, 12.5 mg/kg PO BID, sample 24 h post infection): 1.9
- log reduction at 25 mg/kg ([9]; Staphylococcus aureus, MRSA, in Mus musculus, po, 24 h, read-out: Log reduction vs. untreated, Study 4, 25 mg/kg PO BID, sample 24 h post infection): 3.48
- log reduction at 5 mg/kg ([9]; Staphylococcus aureus, MRSA, in Mus musculus, po, 72 h, read-out: Log reduction vs. untreated, Study 5, 5 mg/kg PO QD, sample 72 h post infection): 1.57
- log reduction at 15 mg/kg ([9]; Staphylococcus aureus, MRSA, in Mus musculus, po, 72 h, read-out: Log reduction vs. untreated, Study 5, 15 mg/kg PO QD, sample 72 h post infection): 3.62
- log reduction at 25 mg/kg ([9]; Staphylococcus aureus, MRSA, in Mus musculus, po, 72 h, read-out: Log reduction vs. untreated, Study 6, 25 mg/kg PO QD, sample 72 h post infection): 3.65
- Active ([9]; Study 1, 50 mg/kg PO BID, sample 24 h post infection): Y
- Active ([9]; Study 2, 15 mg/kg PO BID, sample 24 h post infection): Y
- Active ([9]; Study 2, 50 mg/kg PO BID, sample 24 h post infection): Y
- Active ([9]; Study 4, 6.25 mg/kg PO BID, sample 24 h post infection): N
- Active ([9]; Study 4, 12.5 mg/kg PO BID, sample 24 h post infection): Y
- Active ([9]; Study 4, 25 mg/kg PO BID, sample 24 h post infection): Y
- Active ([9]; Study 5, 5 mg/kg PO QD, sample 72 h post infection): Y
- Active ([9]; Study 5, 15 mg/kg PO QD, sample 72 h post infection): Y
- Active ([9]; Study 6, 25 mg/kg PO QD, sample 72 h post infection): Y
- MIC [10]: > 64 mg/L
- MIC [11]: > 64 mg/L
- MIC [12]: > 64 mg/L
- MIC [13]: > 64 mg/L
- MIC ([14]; ATCC25923, read-out: MIC Sa26): 1 mg/L (≈ 1.74 µM)
- MIC ([14]; ATCC25923, read-out: MIC Sa26 + 10% SH): 1 mg/L
- MIC ([14]; ATCC25923, read-out: MIC Sa26 + 50% SH): 2 mg/L
- IC50 [15]: 1.74 to 17.4 µM
- Active [16]: Y
- Log reduction vs. untreated [16]: −2.52
